Measured values reported in paper PMC3491871 (The Journal of biological chemistry, 2004).

Experiments:
trypanothione reductase [1] = target: T1, trypanothione reductase (Trypanosoma cruzi, UniProt P28593); experiment: protection of oxidised enzyme from QM inactivation; assay type: biochemical
trypanothione reductase [2] = target: T1, trypanothione reductase; experiment: crystal structure of the covalent adduct at […] Å; assay type: biochemical; conditions: read-out: Ki

T1 sequence (P28593 whole entry): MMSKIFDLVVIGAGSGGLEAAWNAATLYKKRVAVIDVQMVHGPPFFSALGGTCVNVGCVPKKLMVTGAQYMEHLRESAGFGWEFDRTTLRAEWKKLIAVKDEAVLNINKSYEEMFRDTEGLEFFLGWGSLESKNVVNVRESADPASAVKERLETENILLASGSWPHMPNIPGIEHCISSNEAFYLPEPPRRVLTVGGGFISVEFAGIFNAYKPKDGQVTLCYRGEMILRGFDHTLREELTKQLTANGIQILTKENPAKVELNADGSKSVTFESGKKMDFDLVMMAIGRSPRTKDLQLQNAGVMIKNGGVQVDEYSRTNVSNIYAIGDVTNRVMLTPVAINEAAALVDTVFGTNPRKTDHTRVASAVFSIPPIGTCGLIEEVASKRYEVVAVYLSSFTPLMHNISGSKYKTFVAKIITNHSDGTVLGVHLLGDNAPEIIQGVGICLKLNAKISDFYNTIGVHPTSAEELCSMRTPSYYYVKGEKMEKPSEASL

**Q.** CCN(CC)CCCC(C)Nc1c2ccc(Cl)cc2nc2ccc(OC)cc12 (centres unmarked) [quinacrine] was tested. Which Ki (trypanothione reductase [1]) did it give?
**A.** Its Ki is 208 ± 45 µM.

**Q.** Which KI (inactivation) (trypanothione reductase [2]) does the source give for COc1ccc2nc3cc(Cl)ccc3c(NC(C)CCCN(CCCl)CCCl)c2c1 (racemic) [QM, quinacrine mustard] here?
**A.** The KI (inactivation) was 41 ± 8 µM.
